Assay results: PubChem BioAssay (NCI)
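Assay format: 96-well plates, 48-hour exposure. GI50 = concentration required for 50% inhibition of growth. TGI: concentration producing complete growth inhibition.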

How the values were obtained:
Assay in all cases: growth of human tumour cells (NCI), 48 h
[1] = test system: LOX IMVI melanoma
[2] = test system: TK-10 renal
[3] = test system: SK-MEL-28 melanoma
[4] = test system: T-47D breast
[5] = test system: HCC-2998 colon
[6] = test system: A549 NSCLC
[7] = test system: RXF 393 renal
[8] = test system: NCI-H23 lung
[9] = test system: OVCAR-4 ovarian
[10] = test system: HT29 colon
[11] = test system: HOP-62 NSCLC
[12] = test system: SW-620 colon
[13] = test system: HCT-15 colon
[14] = test system: A498 renal
[15] = test system: HS 578T breast
[16] = test system: OVCAR-8 ovarian
[17] = test system: SF-295 CNS
[18] = test system: NCI/ADR-RES ovarian
[19] = test system: SK-OV-3 ovarian
[20] = test system: K-562 leukemia
[21] = test system: SK-MEL-5 melanoma
[22] = test system: NCI-H460 lung
[23] = test system: EKVX NSCLC
[24] = test system: IGROV1 ovarian
[25] = test system: SNB-19 CNS
[26] = test system: RPMI-8226 leukemia
[27] = test system: UACC-62 melanoma
[28] = test system: MCF7 breast
[29] = test system: UACC-257 melanoma
[30] = test system: PC-3 prostate
[31] = test system: SF-268 CNS
[32] = test system: CAKI-1 renal
[33] = test system: COLO 205 colon
[34] = test system: HOP-92 NSCLC
[35] = test system: HL-60(TB) leukemia
[36] = test system: M14 melanoma
[37] = test system: NCI-H522 lung
[38] = test system: KM12 colon
[39] = test system: MDA-MB-435
[40] = test system: SF-539 CNS
[41] = test system: U251 CNS
[42] = test system: NCI-H226 lung
[43] = test system: SN12C renal
[44] = test system: MOLT-4 leukemia
[45] = test system: BT-549 breast
[46] = test system: MDA-MB-468 breast
[47] = test system: MALME-3M melanoma
[48] = test system: HCT-116 colon
[49] = test system: OVCAR-5 ovarian
[50] = test system: CCRF-CEM leukemia
[51] = test system: OVCAR-3 ovarian
[52] = test system: SR leukemia
[53] = test system: 786-0 renal
[54] = test system: DU-145 prostate
[55] = test system: ACHN renal

**Q.** `C[C@H]1[C@@H](CC(=O)N[C@@H](Cc2coc3ccccc23)B(O)O)O[C@@H]2OC3(C)CC[C@H]4[C@H](C)CC[C@@H]1[C@@]24O3` was tested. Which GI50 [1] did it give?
**A.** 1.83 µM

**Q.** What about the TGI [1] of the same compound?
**A.** 4.34 µM

**Q.** And the GI50 [2]?
**A.** 2.71 µM

**Q.** What about the TGI [2] of the same compound?
**A.** 8.86 µM

**Q.** What about the GI50 [3] of the same compound?
**A.** 2.92 µM

**Q.** What about the TGI [3] of the same compound?
**A.** 11.5 µM

**Q.** What about the GI50 [4] of the same compound?
**A.** 3.3 µM

**Q.** And the TGI [4]?
**A.** 16.5 µM

**Q.** What about the GI50 [5] of the same compound?
**A.** 2.22 µM

**Q.** What about the TGI [5] of the same compound?
**A.** 4.45 µM

**Q.** What about the GI50 [6] of the same compound?
**A.** 3.66 µM

**Q.** And the TGI [6]?
**A.** 18.7 µM

**Q.** And the GI50 [7]?
**A.** 1.53 µM

**Q.** And the TGI [7]?
**A.** 3.47 µM

**Q.** What about the GI50 [8] of the same compound?
**A.** 3.16 µM

**Q.** What about the TGI [8] of the same compound?
**A.** 14.6 µM

**Q.** And the GI50 [9]?
**A.** 6.09 µM

**Q.** And the TGI [9]?
**A.** > 100 µM

**Q.** And the GI50 [10]?
**A.** 2.27 µM

**Q.** What about the TGI [10] of the same compound?
**A.** 5.36 µM

**Q.** And the GI50 [11]?
**A.** 2.8 µM

**Q.** And the TGI [11]?
**A.** 12.3 µM

**Q.** And the GI50 [12]?
**A.** 2.69 µM

**Q.** And the TGI [12]?
**A.** 11.5 µM

**Q.** What about the GI50 [13] of the same compound?
**A.** 2.22 µM

**Q.** What about the TGI [13] of the same compound?
**A.** 5.88 µM

**Q.** And the GI50 [14]?
**A.** 4.45 µM

**Q.** What about the TGI [14] of the same compound?
**A.** 16.6 µM

**Q.** What about the GI50 [15] of the same compound?
**A.** 2.56 µM

**Q.** And the TGI [15]?
**A.** 9.97 µM

**Q.** What about the GI50 [16] of the same compound?
**A.** 9.53 µM

**Q.** And the TGI [16]?
**A.** 24.7 µM

**Q.** What about the GI50 [17] of the same compound?
**A.** 1.92 µM

**Q.** And the TGI [17]?
**A.** 6.27 µM

**Q.** And the GI50 [18]?
**A.** 11.6 µM

**Q.** What about the TGI [18] of the same compound?
**A.** 26.3 µM

**Q.** What about the GI50 [19] of the same compound?
**A.** 5.37 µM

**Q.** What about the TGI [19] of the same compound?
**A.** 19.2 µM

**Q.** And the GI50 [20]?
**A.** 3.25 µM

**Q.** And the TGI [20]?
**A.** 22.9 µM

**Q.** What about the GI50 [21] of the same compound?
**A.** 2.29 µM

**Q.** What about the TGI [21] of the same compound?
**A.** 5.48 µM

**Q.** What about the GI50 [22] of the same compound?
**A.** 3.89 µM

**Q.** And the TGI [22]?
**A.** 15.2 µM

**Q.** And the GI50 [23]?
**A.** 5.01 µM

**Q.** What about the TGI [23] of the same compound?
**A.** 23.6 µM

**Q.** And the GI50 [24]?
**A.** 4.03 µM

**Q.** What about the TGI [24] of the same compound?
**A.** 18.9 µM

**Q.** What about the GI50 [25] of the same compound?
**A.** 6.28 µM

**Q.** What about the TGI [25] of the same compound?
**A.** > 100 µM

**Q.** And the GI50 [26]?
**A.** 1.23 µM

**Q.** What about the TGI [26] of the same compound?
**A.** 5.65 µM

**Q.** What about the GI50 [27] of the same compound?
**A.** 1.89 µM

**Q.** And the TGI [27]?
**A.** 4.26 µM

**Q.** What about the GI50 [28] of the same compound?
**A.** 3.49 µM

**Q.** And the TGI [28]?
**A.** 18.5 µM

**Q.** And the GI50 [29]?
**A.** 1.85 µM

**Q.** And the TGI [29]?
**A.** 4.19 µM

**Q.** What about the GI50 [30] of the same compound?
**A.** 5.47 µM

**Q.** And the TGI [30]?
**A.** 40.1 µM

**Q.** What about the GI50 [31] of the same compound?
**A.** 4.67 µM

**Q.** And the TGI [31]?
**A.** > 100 µM

**Q.** And the GI50 [32]?
**A.** 4.2 µM

**Q.** What about the TGI [32] of the same compound?
**A.** 23.7 µM

**Q.** And the GI50 [33]?
**A.** 3.07 µM

**Q.** What about the TGI [33] of the same compound?
**A.** 12.2 µM

**Q.** What about the GI50 [34] of the same compound?
**A.** 3.88 µM

**Q.** And the TGI [34]?
**A.** 15.4 µM

**Q.** And the GI50 [35]?
**A.** 2.25 µM

**Q.** And the TGI [35]?
**A.** 6.84 µM

**Q.** And the GI50 [36]?
**A.** 2.1 µM

**Q.** And the TGI [36]?
**A.** 5.96 µM

**Q.** And the GI50 [37]?
**A.** 1.82 µM

**Q.** What about the TGI [37] of the same compound?
**A.** 4.26 µM

**Q.** And the GI50 [38]?
**A.** 3.42 µM

**Q.** And the TGI [38]?
**A.** 11.6 µM

**Q.** What about the GI50 [39] of the same compound?
**A.** 2.06 µM

**Q.** And the TGI [39]?
**A.** 5.03 µM

**Q.** What about the GI50 [40] of the same compound?
**A.** 1.92 µM

**Q.** What about the TGI [40] of the same compound?
**A.** 4.05 µM

**Q.** And the GI50 [41]?
**A.** 3.78 µM

**Q.** And the TGI [41]?
**A.** 15.4 µM

**Q.** And the GI50 [42]?
**A.** 1.3 µM

**Q.** And the TGI [42]?
**A.** 2.84 µM

**Q.** What about the GI50 [43] of the same compound?
**A.** 4.07 µM

**Q.** What about the TGI [43] of the same compound?
**A.** 15.9 µM

**Q.** What about the GI50 [44] of the same compound?
**A.** 1.48 µM

**Q.** And the TGI [44]?
**A.** 6.61 µM

**Q.** And the GI50 [45]?
**A.** 1.64 µM

**Q.** What about the TGI [45] of the same compound?
**A.** 4.2 µM

**Q.** What about the GI50 [46] of the same compound?
**A.** 1.93 µM

**Q.** And the TGI [46]?
**A.** 4.49 µM

**Q.** And the GI50 [47]?
**A.** 1.88 µM

**Q.** What about the TGI [47] of the same compound?
**A.** 6.77 µM

**Q.** And the GI50 [48]?
**A.** 2.19 µM

**Q.** What about the TGI [48] of the same compound?
**A.** 5.56 µM

**Q.** And the GI50 [49]?
**A.** 2.92 µM

**Q.** What about the TGI [49] of the same compound?
**A.** 13.7 µM

**Q.** What about the GI50 [50] of the same compound?
**A.** 2.45 µM

**Q.** And the TGI [50]?
**A.** 12.2 µM

**Q.** What about the GI50 [51] of the same compound?
**A.** 3.07 µM

**Q.** What about the TGI [51] of the same compound?
**A.** 11.1 µM

**Q.** And the GI50 [52]?
**A.** 1.48 µM

**Q.** And the TGI [52]?
**A.** 5.16 µM

**Q.** And the GI50 [53]?
**A.** 4.24 µM

**Q.** What about the TGI [53] of the same compound?
**A.** 19.2 µM

**Q.** What about the GI50 [54] of the same compound?
**A.** 8.58 µM

**Q.** What about the TGI [54] of the same compound?
**A.** 51.6 µM

**Q.** And the GI50 [55]?
**A.** 3.08 µM

**Q.** And the TGI [55]?
**A.** > 100 µM
